Data: the NIST ThermoML archive (doi:10.1021/je100679s)
± gives the expanded uncertainty stated by the source.

Assays:
[1] = 101 kPa, Liquid; for electrical conductivity: DDS-307 conductivity meter
[2] = xn = mol fraction of the nth substance listed; conditions: 101 kPa, Liquid, x2 = 0

CCCCCCn1cc[n+](C)c1C.O=S(=O)([N-]S(=O)(=O)C(F)(F)F)C(F)(F)F
[1]
Conditions	electrical conductivity [S/m]	mass density [kg/m3]
293.15 K	–	1358.19 ± 2.9
298.15 K	0.108 ± 0.0068	1353.11 ± 2.8
303.15 K	0.158 ± 0.0097	1348.71 ± 2.8
308.15 K	0.213 ± 0.013	1344.29 ± 2.8
313.15 K	0.271 ± 0.016	1339.88 ± 2.8
318.15 K	0.319 ± 0.019	1335.47 ± 2.7
323.15 K	0.369 ± 0.022	1331.06 ± 2.7
328.15 K	0.426 ± 0.026	1326.65 ± 2.7
333.15 K	0.48 ± 0.029	1322.24 ± 2.7

COC(=O)OC [dimethyl carbonate]
[1]
Conditions	mass density [kg/m3]
293.15 K	1069.92 ± 0.69
298.15 K	1063.34 ± 0.67
303.15 K	1056.72 ± 0.65
308.15 K	1050.07 ± 0.62
313.15 K	1043.39 ± 0.6
318.15 K	1036.69 ± 0.57
323.15 K	1029.94 ± 0.55
328.15 K	1023.25 ± 0.53
333.15 K	1016.32 ± 0.5

COC(=O)OC [dimethyl carbonate] + CCCCCCn1cc[n+](C)c1C.O=S(=O)([N-]S(=O)(=O)C(F)(F)F)C(F)(F)F
[2]
Conditions	mass density [kg/m3]
293.15 K	1069.92 ± 0.69
298.15 K	1063.34 ± 0.67
303.15 K	1056.72 ± 0.65
308.15 K	1050.07 ± 0.62
313.15 K	1043.39 ± 0.6
318.15 K	1036.69 ± 0.57
323.15 K	1029.94 ± 0.55
328.15 K	1023.25 ± 0.53
333.15 K	1016.32 ± 0.5
